Results taken from US7625838B2, “[1, 2, 4] Triazolo [1, 5-A] pyrimidine derivatives as chromatographic adsorbent for the selective adsorption of IGG” (GE Healthcare Bio-Sciences AB, priority 2005, dated 2009).

Experiments:
Assay type in all cases: binding
[1] = test system: two different monoclonal antibodies (MAbs) and a commercially available Fc-fragment; assay: STD NMR screening for affinity towards IgG related proteins
Protocol: (§1) The screening procedure was based on in vitro screening using two independent in solution analytical techniques relying on saturation difference transfer NMR (STD NMR) and Surface Plasmon Resonace (SPR) methods.
In the NMR screen 69 substances were tested for affinity towards two different monoclonal antibodies (MAbs) and a commercially available Fc-fragment. Unspecific protein binding was investigated by testing for affinity towards α-amylase. Compounds that were found having affinity towards all three IgG related proteins, but no affinity towards α-amylase were assigned as potential candidates for affinity ligands towards the Fc-part of IgG.
(§2) Further structures (commercially available compounds) surrounding compound I were investigated in solution in order to optimize the affinity ligand candidate. These compounds were subject to a corresponding SPR and NMR analysis for affinity as was presented above. However this time only the Fc-fragment was used in the NMR screening while the SPR analysis was performed with the corresponding test proteins as in the first selection.

Fc-fragment = assay: SPR screen, Fc-fragment
Protocol: as §1
(§3) In the SPR screen 53 compounds were tested (non-soluble substances were excluded) for affinity towards a monoclonal antibody and a commercially available Fc-fragment. Analysis data were corrected for the different molecular weights and are presented as percentage of the theoretical maximal response.
(§4) In order to select potential candidates for further investigations SPR data were arranged in such a way that all substances with a response higher than 10% for both Fc fragment and IgG were selected as potential candidates. These compounds were compared with the ones indicated by the NMR-screening. It turned out that most of the SPR derived hits had been rejected in NMR screen due to unspecific binding towards α-amylase.
as §2

[2] = test system: monoclonal antibody (IgG); assay: SPR screen, monoclonal antibody
Protocol: as §1, §3, §4, §2

Structure (SMILES)	NMR affinity ([1]; second selection, only the Fc-fragment used in the NMR screening)	ranking for affinity towards Fc-fragment by SPR (Fc-fragment; second selection)	ranking for affinity towards IgG molecule as indicated by SPR ([2]; second selection)	outcome of NMR screen (affinity towards all three IgG related proteins, no affinity towards α-amylase) ([1]; STD NMR, two MAbs and Fc-fragment)	SPR response, percentage of the theoretical maximal response (Fc-fragment; Fc fragment, corrected for molecular weight)	SPR response, percentage of the theoretical maximal response ([2]; IgG (monoclonal antibody), corrected for molecular weight)
CCOC(=O)c1c[nH]c2ncnn2c1=O [Compound II]	positive by NMR	at least medium ranking	high ranking	–	–	–
CC(=O)Nc1nc2[nH]c(C)c(Cc3ccccc3)c(=O)n2n1 [Compound I]	–	–	–	selected as potential affinity candidate by both methods	higher than 10%	higher than 10%
